Experimental findings from patent US20240351986A1, “UREA COMPOUND CONTAINING 2-HETEROAROMATIC RING SUBSTITUTION, PREPARATION METHOD THEREFOR AND USE THEREOF” (SHANGHAI INSTITUTE OF MATERIA MEDICA, CHINESE ACADEMY OF …, priority 2021, published 2024) are described below.

Read-outs that look alike come from different tables or passages of the source.

The nature of data set [1]: PK parameters in mice after iv and po administration (LC-MS/MS of plasma). It counts as in vivo. To be noted: for AUC(0-t) / half-life / AUC(0-inf) / MRT inf / Cmax / Tmax: mouse, plasma; for AUC(0-inf): read-out: AUCINF_obs; for MRT inf: read-out: MRTINF_obs; for F: oral bioavailability. The method, then:
The relevant pharmacokinetic parameters were calculated to examine the oral bioavailability and pharmacokinetic properties of the compound in mice.

The next data set concerns 422. In words: Tumor cell proliferation inhibition in vitro. The format is cell-based. To be noted: for IC50: proliferation.
For the next data set, the system named is WSU-DLCL2 cells. Description: Tumor cell proliferation inhibition in vitro (CCK-8). To be noted: Homo sapiens, WSUDLCL2, 72 hours. It counts as cell-based. The method, then:
Experimental method: WSU-DLCL2 cells in good condition were seeded in a 96-well plate at 20,000/well. The test compound was gradient diluted with PBS and then added to the wells. After incubating with the cells for 72 hours, 10 μl of CCK-8 reagent was added to each well. After further incubation, the absorbance was measured at 460 nm and the 4-parameter curve fitting of Softmax Pro software was used to calculate the proliferation inhibition IC50 of the test compound.

The next data set has as its system Will2. Description: Tumor cell proliferation inhibition in vitro. The format is cell-based.
Another data set deals with U2932. Description: Tumor cell proliferation inhibition in vitro. It counts as cell-based. Particulars: Homo sapiens.
The subject of the next data set is Pfeiffer. In words: Tumor cell proliferation inhibition in vitro. The format is cell-based. Particulars: for IC50: Homo sapiens, Pfeiffer, proliferation.
For the next data set, the target named is CDK6/cyclin D1 (Homo sapiens, UniProt Q00534). In words: CDK6 enzyme activity inhibition. The format is biochemical. To be noted: for inhibition at 0.01 µM: compound 10 nM, read-out: CDK6/Cyc D1 inhibition rate % 10 nM; for inhibition at 0.1 µM: compound 100 nM, read-out: CDK6/Cyc D1 inhibition rate % 100 nM. How it is done: (§1) CDK1,4,6,7 enzyme (CDK1/cyclin B, CDK4/cyclin D1, CDK6/cyclin D1, CDK7/cyclin H) activity was measured using a 5 μL enzyme system (50 mM HEPES, 10 mM MgCl2, 1 mM EGTA, 2 mM DTT and 0.0100 Tween 20, appropriate enzyme) either. A mixture of 2.5 μL of compound, 2.5 µL of substrate and ATP (final concentration of substrate 50 nM, final concentration of ATP 200 μM) was incubated at room temperature in the dark for 60 minutes. Then 5 μL EDTA stop solution diluted in 1× detection buffer (final concentration 6 mM) was added to each well, then an antibody diluted in 1× detection buffer (final concentration 2 nM) was added to incubate for 1 hour at room temperature in the dark, and then the corresponding enzyme activity inhibition rate or IC50 was calculated after measurement.

A further data set concerns the target CDK7/cyclin H (Homo sapiens, UniProt P50613). In words: CDK7 enzyme activity inhibition. The format is biochemical. Particulars: for inhibition at 0.01 µM: compound 10 nM, read-out: CDK7/Cyc H inhibition rate % 10 nM; for inhibition at 0.1 µM: compound 100 nM, read-out: CDK7/Cyc H inhibition rate % 100 nM. How it is done: as §1
Another data set has as its target CDK1/cyclin B (Homo sapiens, UniProt P06493). Description: CDK1 enzyme activity inhibition. The format is biochemical. To be noted: for inhibition at 0.01 µM: compound 10 nM, read-out: CDK1/Cyc B inhibition rate % 10 nM; for inhibition at 0.1 µM: compound 100 nM, read-out: CDK1/Cyc B inhibition rate % 100 nM. The method, then: as §1
Data set [2] deals with T1, Recombinant human CDK9/cyclin T1 (Homo sapiens, UniProt P50750).
T1 construct: purchased Carna bioscience 04-110
Description: CDK9 enzyme inhibitory activity (ADP-Glo kinase assay). Particulars: for inhibition at 0.01 µM / inhibition at 0.1 µM: CDK9 enzyme activity, average of two independent repeats; for inhibition at 0.01 µM: compound 10 nM, read-out: Inhibition rate at different concentrations (%) 10 nM; for inhibition at 0.1 µM: compound 100 nM, read-out: Inhibition rate at different concentrations (%) 100 nM; for IC50: Table 2, read-out: CDK9/CycT1 IC50. It counts as biochemical. In general terms: ADP-Glo first removes unused ATP, then detects ADP through luciferase.

A further data set addresses CDK4/cyclin D1 (Homo sapiens, UniProt P11802). Description: CDK4 enzyme activity inhibition. To be noted: for inhibition at 0.01 µM: compound 10 nM, read-out: CDK4/Cyc D1 inhibition rate % 10 nM; for inhibition at 0.1 µM: compound 100 nM, read-out: CDK4/Cyc D1 inhibition rate % 100 nM. It counts as biochemical. The method, then: as §1
For data set [3], the system named is phosphorylation of Pol II S2 position. In words: Western Blot, CDK9 signaling pathway in WSU-DLCL2 cells: Pol II S2 phosphorylation. It counts as cell-based. Particulars: 24 hours. The method, then:
(§2) Western Blot was used to detect the effect of compounds on the activation of CDK9 signaling pathway in WSU-DLCL2 cells.
(§3) Experimental method: An appropriate amount of WSU-DLCL2 cells were seeded in a 6-well plate. After 24 hours of exposure to the test compound, the cells were collected by centrifugation. A corresponding amount of 1× loading buffer (50 mM Tris-HCl (pH6.8), 2% SDS, 0.1% bromophenol blue, 10% glycerol) was added, the sample was boiled at 100° C. after lysis. The same volume of sample was taken. After SDS-PAGE electrophoresis, the protein on the gel was transferred to a nitrocellulose membrane. The corresponding band was cut according to the size of the protein and blocked TBST containing 5% skimmed milk powder (20 mM Tris-HCl, 150 mM NaCl, 0.1% Tween20, adjust pH to 7.4) for 1 hour, and primary antibody was incubated overnight at 4° C. TBST was used to elute excess primary antibody for 10 minutes each time for three times, the secondary antibody was incubated at room temperature for 1 hour, and then TBST was used to elute excess secondary antibody for 10 minutes each time for three times. Finally, the strips were colored and photographed using a Bio-Rad colorimeter.

Another data set relates to Mcl-1. In words: Western Blot, CDK9 signaling pathway in WSU-DLCL2 cells: Mcl-1 expression. It counts as cell-based. To be noted: 24 hours. The method, then: as §2, §3
A general note: A western blot detects proteins with antibodies after separation by electrophoresis.

A short description of data set [4]: Identification of metabolites in mouse plasma. The format is in vivo.
Setting [5] is: original form and metabolites of compound 47 in mouse plasma, iv.

T1 sequence (P50750 whole entry): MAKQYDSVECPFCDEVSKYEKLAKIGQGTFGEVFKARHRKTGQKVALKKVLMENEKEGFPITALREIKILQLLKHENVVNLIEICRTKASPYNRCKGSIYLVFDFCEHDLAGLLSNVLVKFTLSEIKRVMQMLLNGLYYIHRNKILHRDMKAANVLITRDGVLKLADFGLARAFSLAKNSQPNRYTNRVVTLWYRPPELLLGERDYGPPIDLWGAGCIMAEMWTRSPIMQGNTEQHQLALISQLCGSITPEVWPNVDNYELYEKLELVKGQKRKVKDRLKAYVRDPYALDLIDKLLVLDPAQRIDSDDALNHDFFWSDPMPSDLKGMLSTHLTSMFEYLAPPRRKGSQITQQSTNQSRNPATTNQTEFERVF
T1 sequence (O60563 whole entry partner): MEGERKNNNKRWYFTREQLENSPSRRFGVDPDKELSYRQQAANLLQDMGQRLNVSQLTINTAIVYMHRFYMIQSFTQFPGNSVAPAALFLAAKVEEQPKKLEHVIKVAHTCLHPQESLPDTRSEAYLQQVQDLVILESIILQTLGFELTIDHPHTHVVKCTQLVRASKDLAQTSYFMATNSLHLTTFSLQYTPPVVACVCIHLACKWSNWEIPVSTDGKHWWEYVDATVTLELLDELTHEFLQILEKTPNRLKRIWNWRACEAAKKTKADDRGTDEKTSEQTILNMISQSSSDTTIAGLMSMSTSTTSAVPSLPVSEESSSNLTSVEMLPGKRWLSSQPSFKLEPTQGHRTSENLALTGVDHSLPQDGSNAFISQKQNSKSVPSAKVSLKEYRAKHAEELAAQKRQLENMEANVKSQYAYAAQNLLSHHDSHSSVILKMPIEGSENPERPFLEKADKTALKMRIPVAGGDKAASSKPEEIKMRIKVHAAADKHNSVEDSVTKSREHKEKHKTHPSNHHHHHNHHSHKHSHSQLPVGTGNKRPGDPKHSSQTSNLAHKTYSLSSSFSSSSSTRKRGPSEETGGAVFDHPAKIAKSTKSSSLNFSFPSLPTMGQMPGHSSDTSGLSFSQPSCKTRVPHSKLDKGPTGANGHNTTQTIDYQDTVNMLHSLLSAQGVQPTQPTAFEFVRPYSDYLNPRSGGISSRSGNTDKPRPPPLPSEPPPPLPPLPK
Chain of CDK1/cyclin B (P06493 whole entry, species assumed): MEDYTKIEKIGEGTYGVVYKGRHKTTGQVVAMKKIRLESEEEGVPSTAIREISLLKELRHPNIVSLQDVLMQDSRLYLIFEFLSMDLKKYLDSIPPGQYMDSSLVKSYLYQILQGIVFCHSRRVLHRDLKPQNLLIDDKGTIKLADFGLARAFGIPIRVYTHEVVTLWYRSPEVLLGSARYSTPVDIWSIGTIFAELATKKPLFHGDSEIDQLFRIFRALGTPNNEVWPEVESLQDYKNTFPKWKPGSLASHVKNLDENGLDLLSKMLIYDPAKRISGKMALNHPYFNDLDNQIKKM
Chain of CDK1/cyclin B (P14635 whole entry partner, species assumed): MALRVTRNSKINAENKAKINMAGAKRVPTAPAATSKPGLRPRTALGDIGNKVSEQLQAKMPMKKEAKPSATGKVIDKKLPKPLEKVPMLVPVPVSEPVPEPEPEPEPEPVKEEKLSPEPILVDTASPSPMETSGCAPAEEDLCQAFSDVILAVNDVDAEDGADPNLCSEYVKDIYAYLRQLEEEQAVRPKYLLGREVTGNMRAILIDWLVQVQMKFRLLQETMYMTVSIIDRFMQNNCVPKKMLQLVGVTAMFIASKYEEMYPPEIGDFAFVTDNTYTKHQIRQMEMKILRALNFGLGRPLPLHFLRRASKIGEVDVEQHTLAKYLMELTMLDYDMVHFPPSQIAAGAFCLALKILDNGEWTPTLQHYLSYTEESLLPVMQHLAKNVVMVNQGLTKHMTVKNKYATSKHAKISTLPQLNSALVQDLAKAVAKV
Chain of CDK4/cyclin D1 (P11802 whole entry, species assumed): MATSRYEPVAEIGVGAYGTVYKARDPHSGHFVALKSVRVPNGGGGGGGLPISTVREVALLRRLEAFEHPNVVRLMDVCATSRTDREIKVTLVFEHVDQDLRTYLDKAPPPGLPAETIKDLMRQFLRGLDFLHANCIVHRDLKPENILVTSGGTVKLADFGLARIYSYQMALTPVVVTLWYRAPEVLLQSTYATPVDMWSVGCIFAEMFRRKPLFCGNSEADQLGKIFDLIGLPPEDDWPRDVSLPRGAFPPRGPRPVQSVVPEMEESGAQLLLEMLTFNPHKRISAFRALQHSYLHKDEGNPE
Chain of CDK4/cyclin D1 (P24385 whole entry partner, species assumed): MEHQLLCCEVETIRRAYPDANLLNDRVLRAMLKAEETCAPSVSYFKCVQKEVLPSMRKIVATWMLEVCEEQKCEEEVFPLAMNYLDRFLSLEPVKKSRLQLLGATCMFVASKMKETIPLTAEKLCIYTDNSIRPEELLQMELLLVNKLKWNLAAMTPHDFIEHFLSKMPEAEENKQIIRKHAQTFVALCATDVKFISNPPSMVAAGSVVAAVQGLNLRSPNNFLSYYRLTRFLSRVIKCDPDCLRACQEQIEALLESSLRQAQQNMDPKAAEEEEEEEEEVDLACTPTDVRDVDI
Chain of CDK7/cyclin H (P50613 whole entry, species assumed): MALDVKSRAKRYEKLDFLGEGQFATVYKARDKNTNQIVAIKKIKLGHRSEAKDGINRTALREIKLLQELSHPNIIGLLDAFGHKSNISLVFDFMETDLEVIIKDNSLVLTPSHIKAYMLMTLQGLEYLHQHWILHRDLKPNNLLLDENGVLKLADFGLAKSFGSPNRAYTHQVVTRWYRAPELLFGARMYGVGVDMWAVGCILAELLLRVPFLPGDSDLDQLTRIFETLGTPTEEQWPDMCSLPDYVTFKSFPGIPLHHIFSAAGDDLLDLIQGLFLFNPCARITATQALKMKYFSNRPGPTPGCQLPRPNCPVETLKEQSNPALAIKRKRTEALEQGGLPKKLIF
Chain of CDK7/cyclin H (P51946 whole entry partner, species assumed): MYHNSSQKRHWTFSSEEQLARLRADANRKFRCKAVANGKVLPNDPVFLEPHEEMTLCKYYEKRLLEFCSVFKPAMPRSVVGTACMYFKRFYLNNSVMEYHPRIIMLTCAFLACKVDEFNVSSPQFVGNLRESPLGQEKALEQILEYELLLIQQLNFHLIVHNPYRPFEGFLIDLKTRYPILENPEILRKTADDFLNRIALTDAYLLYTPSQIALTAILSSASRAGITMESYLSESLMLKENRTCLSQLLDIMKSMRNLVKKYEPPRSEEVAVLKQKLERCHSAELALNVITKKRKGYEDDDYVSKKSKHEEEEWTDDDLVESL
Chain of CDK6/cyclin D1 (Q00534 whole entry, species assumed): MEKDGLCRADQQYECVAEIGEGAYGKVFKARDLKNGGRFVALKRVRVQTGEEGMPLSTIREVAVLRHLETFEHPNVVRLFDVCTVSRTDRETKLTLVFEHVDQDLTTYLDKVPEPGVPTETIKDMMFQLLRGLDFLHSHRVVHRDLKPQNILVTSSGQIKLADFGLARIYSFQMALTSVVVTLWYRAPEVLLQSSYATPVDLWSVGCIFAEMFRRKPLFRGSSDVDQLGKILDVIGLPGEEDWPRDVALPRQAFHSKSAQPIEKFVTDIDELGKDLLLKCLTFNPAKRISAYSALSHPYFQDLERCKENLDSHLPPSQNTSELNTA
Chain of CDK6/cyclin D1 (P24385 whole entry partner, species assumed): as the sequence (P24385 whole entry partner, species assumed) above

In [1] (i.v.), `CC(=O)N[C@@H]1CCC[C@H](C(=O)Nc2cc(-c3cnn4c3CC(C)(C)C4)c(Cl)cn2)C1` [AZD4573, reference compound] registered a CL_obs of 119 mL/min/kg. Moreover, the Vss_obs in data set [1] (i.v.) came to 0.82 L/kg. Moreover, the AUC(0-t) in data set [1] (iv, 3 mg/kg) stood at 416 ng·h/mL; in data set [1] (po), 73.2 ng·h/mL. The half-life in [1] (iv, 3 mg/kg) was 0.11 h; in data set [1] (po, 10 mg/kg), 0.27 h. Further, the AUC(0-inf) worked out at 419 ng·h/mL in data set [1] (iv, 3 mg/kg, i.v.) and 73.6 ng·h/mL in data set [1] (po). The MRT inf in data set [1] (iv, 3 mg/kg, i.v.) stood at 0.11 h; in [1] (po), 0.42 h. The same molecule had a maximum concentration (Cmax) in data set [1] (po) of 219 ng/mL. The time of peak concentration (Tmax) in data set [1] (po) is 0.25 h. Moreover, in data set [1], the F was 5.28%. Moreover, the IC50 in the data set on 422 was 1.81 nM; in the data set with WSU-DLCL2 cells, < 3 nM; with Will2, 5.75 nM; in the data set on U2932 it was 2.32 nM; in the data set on Pfeiffer it was 2.43 nM.
Take `COCCN[C@H]1CC[C@H](NC(=O)Nc2cc(-c3cnn4c3CC(C)(C)C4)c(Cl)cn2)CC1` [Example 46, 1-(5-chloro-4-(5,5-dimethyl-5,6-dihydro-4H-pyrrolo[1,2-b]pyrazol-3-yl)pyridin-2-yl)-3-((1r,4r)-4-((2-methoxy)amino)cyclohexyl)urea]: at CDK6/cyclin D1, the inhibition at 0.01 µM amounted to 6.2% and the inhibition at 0.1 µM is 21.6%. For the same molecule, on CDK7/cyclin H, the inhibition at 0.01 µM came out at 24% and the inhibition at 0.1 µM was 59%. In addition, in [1], the “plasma clearance rates compared with AZD4573” value was “lower” and the F was determined as 24.8%. In data set [1] (i.v.), this molecule gave a CL_obs of 68.6 mL/min/kg and a Vss_obs of 3.469 L/kg. In [1] (iv, 3 mg/kg), this molecule gave an AUC(0-t) of 728 ng·h/mL and a half-life of 2.09 h. Besides, in data set [1] (iv, 3 mg/kg, i.v.), the AUC(0-inf) is 729 ng·h/mL and the MRT inf is 0.84 h. In data set [1] (po), the AUC(0-t) stood at 601 ng·h/mL, the highest concentration (Cmax) stood at 382 ng/mL, the Tmax is 1 h and the AUC(0-inf) was 602 ng·h/mL. Also, the MRT inf in data set [1] (po) is 1.7 h. This molecule also showed a half-life in data set [1] (po, 10 mg/kg) of 2.38 h. Moreover, on CDK1/cyclin B, the inhibition at 0.01 µM is -5.1% and the inhibition at 0.1 µM was determined as 11.6%. Besides, in [2], the inhibition at 0.01 µM was determined as 55%, the inhibition at 0.1 µM worked out at 94% and the IC50 turned out to be 12 nM. Also, on CDK4/cyclin D1, the inhibition at 0.01 µM was 11.1% and the inhibition at 0.1 µM amounted to 20.9%.
Regarding `CC(=O)N[C@H]1CC[C@H](NC(=O)Nc2cc(-c3cnn4c3CC(C)(C)C4)c(Cl)cn2)CC1` [Example 47, N-((1r,4r)-4-(3-(5-chloro-4-(5,5-dimethyl-5,6-dihydro-4H-pyrrolo[1,2-b]pyrazol-3-yl)pyridin-2-yl)ureido)cyclohexyl)acetamide], the inhibition at 0.01 µM turned out to be 4.6% on CDK6/cyclin D1; 15% on CDK7/cyclin H; 5% on CDK1/cyclin B; 71% in data set [2]; 13.6% on CDK4/cyclin D1. Moreover, the inhibition at 0.1 µM was determined as 26.7% on CDK6/cyclin D1; 50% at CDK7/cyclin H; 33.4% on CDK1/cyclin B; 84% in [2]; 41.1% on CDK4/cyclin D1. For the same molecule, the “plasma clearance rates compared with AZD4573” value in [1] is “lower”. The molecule also had a CL_obs in [1] (i.v.) of 102 mL/min/kg. Besides, the Vss_obs in data set [1] (i.v.) came to 14.318 L/kg. The AUC(0-t) in [1] (iv, 3 mg/kg) is 480 ng·h/mL; in data set [1] (po), 98.8 ng·h/mL. Moreover, the half-life in data set [1] (iv, 3 mg/kg) is 3.84 h; in data set [1] (po, 10 mg/kg) it was 1.5 h. The AUC(0-inf) was found to be 491 ng·h/mL in [1] (iv, 3 mg/kg, i.v.) and 100 ng·h/mL in [1] (po). The MRT inf in [1] (iv, 3 mg/kg, i.v.) is 2.34 h; in data set [1] (po), 1.57 h. The concentration in data set [1] (po) peaked (Cmax) at 58.2 ng/mL. In addition, in [1] (po), the Tmax was determined as 0.5 h. This molecule also registered a F in [1] of 6.18%. Besides, the “phosphorylation of Pol II S2 position” value was “significantly down-regulated” in [3] (50 nM, vs control group) and “basically completely inhibited” in [3] (100 nM). Besides, the Mcl-1 expression entry in the data set on Mcl-1 (50 nM) is listed as “significant decrease”; in the data set on Mcl-1 (100 nM), “almost completely blocked”. Further, in [4] (mouse plasma, from metabolite identification), the “plasma stability compared with positive compound AZD4573” value is on record as “higher plasma stability”. Besides, the IC50 in data set [2] was 5.1 nM; with 422, 0.089 nM; with WSU-DLCL2 cells, < 4.5 nM; in the data set with Will2, 2.16 nM; with U2932, 0.932 nM; in the data set with Pfeiffer, 0.052 nM. Further, the “growth inhibition potency relative to positive control compound AZD4573” value is on record as 20.33 times in the data set on 422 (422 cells, IC50 ratio) and 46.67 times with Pfeiffer (Pfeiffer cells, IC50 ratio).
For the molecule `CC(=O)N[C@H]1CC[C@H](NC(=O)Nc2cc(-c3cnn4c3CC(C)(C)C4)c(Cl)cn2)CC1` [Example M0], in data set [4] (setting [5]), the “Area (254 nm), value in parentheses, iv” value is listed as “(532)” and the “MS Area iv” value was 62967. For the same molecule, in data set [4] (original form and metabolites of compound 47 in mouse plasma, po), the “MS Area po” value is listed as 811.

For orientation: AUC(0-t) means exposure summed from dosing to a finite time, without extrapolation to infinity. A higher AUC(0-t) goes with high exposure. By half-life is commonly meant how long it takes for the measured level to halve. Lower therefore signals fast loss. One may read the Cmax as the maximum level reached in the sampled fluid or tissue. In general, Tmax refers to the time at which the peak concentration occurs.
